The star is where a group is joined. Palmitoyl = CCCCCCCCCCCCCCCC(=O)*
System: type I collagen
Assay: Determination of collagen biosynthesis (type I collagen ELISA), single peptides and mixture, Example 10
Format: cell-based, human
Conditions: 20, 40 and 80 μg/ml, 72 hours; ELISA O.D. 450 nm; vs untreated cells
Method: Human Dermal Fibroblasts (ATCC PCS-201-012) were seeded in 96-well plates (3000 cells per well), and left to grow in DMEM containing 5% fetal bovine serum (FBS) for 48 hours. The medium was then replaced with fresh medium containing 0.1% FBS and the corresponding treatment for determining collagen production. After the incubation with each of the peptides (1, 2, and 3) and the mixture of peptides 1-3 synthesized in Example 1, at different concentrations (20, 40 and 80 μg/ml) of each peptide dissolved in DMEM medium in an equivalent proportion of each of them in the mixture (1:1:1 w/w/w), for a period of 72 hours, the same amounts of supernatant were added to a plate coated with human type I collagen antibody (commercial rabbit polyclonal antibodies against human collagen I, code A03C0377, provided by Bluegene Biotech Co. Ltd). The plate was incubated at room temperature for 2 hours to allow the antibody and the produced collagen to react with one another. The plate was then washed three times with PBS containing 0.5% Tween 20 for removing the remaining unbound sample. Next, a human antibody which recognizes the biotin-labeled type I collagen was added for 1 hour. After washing the plate with phosphate buffered saline (PBS) containing 0.5% Tween 20 for removing non-specific interactions, streptavidin-horseradish peroxidase (HRP) (St Louis, Sigma) was added. The amount of collagen in each well was determined using tetramethylbenzidine (TMB) (St Louis, Sigma) as the substrate for the HRP. The reaction between the HRP and TMB was stopped by adding 1 N HCl, and the O.D. (optical density) was measured at 450 nm. The untreated cells represented the negative control of the experiment.

| Substance | induction of type I collagen |
| --- | --- |
| Palm-RGDGANPNAAG-NH2 (Palmitoyl-RGDGANPNAAG-NH2; SMILES CCCCCCCCCCCCCCCC(=O)N[C@@H](CCCNC(=N)N)C(=O)NCC(=O)N[C@@H](CC(=O)O)C(=O)NCC(=O)N[C@@H](C)C(=O)N[C@@H](CC(N)=O)C(=O)N1CCC[C@H]1C(=O)N[C@@H](CC(N)=O)C(=O)N[C@@H](C)C(=O)N[C@@H](C)C(=O)NCC(N)=O) [Peptide 1] | capable of inducing type I collagen production |
| Palm-RGDGPQGPQ-NH2 (Palmitoyl-RGDGPQGPQ-NH2; SMILES CCCCCCCCCCCCCCCC(=O)N[C@@H](CCCNC(=N)N)C(=O)NCC(=O)N[C@@H](CC(=O)O)C(=O)NCC(=O)N1CCC[C@H]1C(=O)N[C@@H](CCC(N)=O)C(=O)NCC(=O)N1CCC[C@H]1C(=O)N[C@@H](CCC(N)=O)C(N)=O) [Peptide 2] | capable of inducing type I collagen production |
| Palm-WRFQWQFEQ-NH2 (Palmitoyl-WRFQWQFEQ-NH2; SMILES CCCCCCCCCCCCCCCC(=O)N[C@@H](Cc1c[nH]c2ccccc12)C(=O)N[C@@H](CCCNC(=N)N)C(=O)N[C@@H](Cc1ccccc1)C(=O)N[C@@H](CCC(N)=O)C(=O)N[C@@H](Cc1c[nH]c2ccccc12)C(=O)N[C@@H](CCC(N)=O)C(=O)N[C@@H](Cc1ccccc1)C(=O)N[C@@H](CCC(=O)O)C(=O)N[C@@H](CCC(N)=O)C(N)=O) [Peptide 3] | capable of inducing type I collagen production |

— patent publication US9932368B2, “Peptides for the stimulation of collagen formation” (INFINITEC ACTIVOS S.L, priority 2013, dated 2018)
